The values below come from US5242938A, “Derivatives of virginiamycin M1” (Merck & Co., Inc., priority 1992, dated 1993).

pIC50: −log10 of the molar value. ≈ marks a conversion by molar mass, not a printed value. Like-named read-outs stand apart in the source and are kept apart here. A value given as a limit tells only on which side of the number the result lay.

For test [1], the target named is T1, CCK-B (guinea pig cortex) (Cavia porcellus, UniProt H0VZC5).
T1 construct: guinea pig cortical preparations; from tissue; host or cells: guinea pig brain cortex membranes
T1 sequence (H0VZC5 1-426): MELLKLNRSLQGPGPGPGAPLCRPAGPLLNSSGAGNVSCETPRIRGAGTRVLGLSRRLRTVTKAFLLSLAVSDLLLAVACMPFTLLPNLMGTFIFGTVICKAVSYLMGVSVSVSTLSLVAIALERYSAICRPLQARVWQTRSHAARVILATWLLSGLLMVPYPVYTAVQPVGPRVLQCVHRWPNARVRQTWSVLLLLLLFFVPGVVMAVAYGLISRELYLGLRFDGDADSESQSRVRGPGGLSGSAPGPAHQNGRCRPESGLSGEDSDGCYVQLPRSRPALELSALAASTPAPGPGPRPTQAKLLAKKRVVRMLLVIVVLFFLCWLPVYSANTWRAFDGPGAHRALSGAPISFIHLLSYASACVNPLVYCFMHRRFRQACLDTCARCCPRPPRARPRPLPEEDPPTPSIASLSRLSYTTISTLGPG
The test can be described thus: [125I]BHCCK-8 radioligand binding, guinea pig cortical preparation. The note with it: read-out: CCK binding inhibition - IC50, [125I]BHCCK. On the procedure: (§1) The resulting supernatant was re-spun at 20,000×g for 20 minutes. […] Incubations were for 40 minutes at 4° C. and were terminated by filtration and washing with ice cold 100 mM saline. […] Incubations were for 30 minutes at room temperature and were terminated by filtration over GF/C filters and washing with 100 mM NaCl.

The target of test [2] is T1, CCK-B (guinea pig cortex). The test can be described thus: [3H]L-365,260 CCK-B selective antagonist ligand binding, brain membranes. The following applies: for pIC50: read-out: CCK binding inhibition - IC50, [3H]L-365,260. On the procedure:
as §1

The target in test [3] is T2, CCK-A (rat pancreas) (Rattus norvegicus, UniProt P30551).
T2 construct: from tissue; host or cells: rat pancreas
T2 sequence (P30551 1-444): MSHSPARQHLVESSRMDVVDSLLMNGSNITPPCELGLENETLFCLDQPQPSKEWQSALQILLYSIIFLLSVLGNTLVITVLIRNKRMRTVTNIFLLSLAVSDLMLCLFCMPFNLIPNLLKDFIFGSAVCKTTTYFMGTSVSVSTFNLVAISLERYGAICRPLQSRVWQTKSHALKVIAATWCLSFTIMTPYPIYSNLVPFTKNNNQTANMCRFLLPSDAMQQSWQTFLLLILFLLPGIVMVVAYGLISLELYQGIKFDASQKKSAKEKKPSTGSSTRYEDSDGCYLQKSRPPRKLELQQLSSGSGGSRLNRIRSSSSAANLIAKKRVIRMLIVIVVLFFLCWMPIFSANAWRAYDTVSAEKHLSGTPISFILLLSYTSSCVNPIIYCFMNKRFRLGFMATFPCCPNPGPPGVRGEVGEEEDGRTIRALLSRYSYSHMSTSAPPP
The test can be described thus: [125I]BHCCK-8 radioligand binding, rat pancreatic preparation. The note with it: read-out: CCK binding inhibition - IC50, [125I]BHCCK. The protocol:
as §1

Test [4] deals with T2, CCK-A (rat pancreas). The test can be described thus: [3H]L-364,718 CCK-A selective antagonist ligand binding, pancreas. The note with it: for pIC50: read-out: CCK binding inhibition - IC50, [3H]L-364,718. On the procedure: as §1
For another test, the system named is Bacillus sp. (Mb 633). The test can be described thus: Agar diffusion disc assay, Baci 633. It is filed as cell-based. The following applies: Bacillus, 18 h. On the procedure:
(§2) Cultures employed in evaluating antimicrobial activity included plant pathogens, human and animal opportunistic pathogens and selected laboratory strains having specific-antibiotic sensitivities or chromosomal or R-plasmid-mediated resistances. […] The agar diffusion MIC's were determined using the method described by Barry in Anitbiotics in Laboratory Medicine, 2nd Ed., Ed. V. Lorian, pp. 1-63, William & Wilkins, Baltimore, 1986. Each test compound was dissolved in methanol to a concentration of 1 mg/ml. Serial dilutions of these compounds were also made to determine an agar diffusion MIC. 20 μl of each dilution was pipetted on to 6 mm paper discs, air dried and placed onto the surface of an agar plate seeded with the appropriate bacteria (~10^6 cfu). Seeded agar plates were incubated overnight (~18 hours) at 25° C. Zone sizes were measured to the nearest mm. Each compound was tested in triplicate and the results shown represent the mean.
Background: In agar diffusion tests the substance spreads into inoculated agar from a disc or well.

In test [5] the test system is Staphylococcus aureus (Mb 108, ATCC 6538P). The test can be described thus: Agar diffusion disc assay, Sta 108. The format is cell-based. The note with it: Staphylococcus aureus, ATCC6538P, 18 h; @ 20 g/disc; read-out: Inhibition zone diameter, Sta 108. On the procedure: as §2
Test [6] has as its system Bacillus subtilis (Mb 964, ATCC 6633). The test can be described thus: Agar diffusion disc assay, Subt 964. The format is cell-based. The following applies: Bacillus subtilis, ATCC6633, 18 h; @ 20 g/disc; read-out: Inhibition zone diameter, Subt 964. On the procedure: as §2
For test [7], the system named is Micrococcus luteus (Mb 1101, ATCC 9341). The test can be described thus: Agar diffusion disc assay, Micr 1101. It is filed as cell-based. The note with it: Micrococcus luteus; for MIC: read-out: Agar Diffusion MIC versus Micrococcus luteus; for zone of inhibition at 5 µg/disc: 5.00 μg/disc; for zone of inhibition at 10 µg/disc: 10.0 μg/disc. The protocol: as §2
Test [8] concerns Staphylococcus aureus (Mb 2983). The test can be described thus: Agar diffusion disc assay, Sta 2983. The format is cell-based. The note with it: Staphylococcus aureus, 18 h; @ 20 g/disc; read-out: Inhibition zone diameter, Sta 2983. On the procedure: as §2
The subject of test [9] is Corynebacterium pseudodiphtheriticum (Mb 261, ATCC 9742). The test can be described thus: Agar diffusion disc assay, Cory 261. The format is cell-based. The note with it: Corynebacterium pseudodiphtheriticum, ATCC9742, 18 h; @ 20 g/disc; read-out: Inhibition zone diameter, Cory 261. On the procedure:
as §2

Test [10] deals with Streptococcus faecium (Mb 2820). The test can be described thus: Agar diffusion disc assay, Str 2820. It is filed as cell-based. The note with it: Enterococcus faecium, 18 h; @ 20 g/disc; read-out: Inhibition zone diameter, Str 2820. The protocol: as §2
Test [11] concerns Streptococcus agalactiae (Mb 2875). The test can be described thus: Agar diffusion disc assay, Str 2875. The note with it: Streptococcus agalactiae, 18 h; @ 20 g/disc; read-out: Inhibition zone diameter, Str 2875. The format is cell-based. On the procedure: as §2
The test system of test [12] is Salmonella gallinarum (Mb 1287). The test can be described thus: Agar diffusion disc assay, Salm 1287. It is filed as cell-based. The following applies: Salmonella enterica, GALLINARUM, 18 h; @ 20 g/disc; read-out: Inhibition zone diameter, Salm 1287. On the procedure: as §2
Test [13] deals with Escherichia coli (Mb 1418). The test can be described thus: Agar diffusion disc assay, Coli 1418. The following applies: Escherichia coli, 18 h; @ 20 g/disc; read-out: Inhibition zone diameter, Coli 1418. The format is cell-based. The protocol:
as §2

Test [14] deals with Pseudomonas stutzeri (Mb 1231, ATCC 11607). The test can be described thus: Agar diffusion disc assay, Pseu 1231. The format is cell-based. The note with it: Stutzerimonas stutzeri, ATCC11607, 18 h; @ 20 g/disc; read-out: Inhibition zone diameter, Pseu 1231. The protocol: as §2
For test [15], the system named is En terobacter aergenes (Mb 835). The test can be described thus: Agar diffusion disc assay, Ent 835. It is filed as cell-based. The following applies: 18 h; @ 20 g/disc; read-out: Inhibition zone diameter, Ent 835. On the procedure: as §2
The mark [16] stands for this setting: @ 20 g/disc, read-out: Inhibition zone diameter, Baci 633.
The mark [17] stands for this setting: ATCC9341, 18 h, @ 20 g/disc, read-out: Inhibition zone diameter, Micr 1101.
Setting [18] is: ATCC9341, 25° C., ~18 hours, read-out: Mean of triplicate zone size versus Micrococcus luteus.
Setting [19] is: ATCC9341, 20.0 μg/disc, 25° C., ~18 hours, read-out: Mean of triplicate zone size versus Micrococcus luteus.

With `CC1=C\[C@@H](OC(=O)Nc2ccc([N+](=O)[O-])cc2)CC(=O)Cc2nc(co2)C(=O)N2CCC=C2C(=O)O[C@H](C(C)C)[C@H](C)/C=C/C(=O)NC\C=C\1` [Example 10], the pIC50 (commonly the negative decadic logarithm of the IC50, by convention in mol/L) in test [1] was 5.80; in test [2], 4.88; at CCK-A (rat pancreas) [3], less than 5.52; at CCK-A (rat pancreas) [4] it was less than 5.52. Further, the “A.R. = agonist ratio = IC50([3H]L365,260)/IC50([125I]CCK)” value in test [2] is listed as 8.7. The zone of inhibition at 20 µg/disc in the test with Bacillus sp. (Mb 633) (setting [16]) stood at 0 mm; in test [5] it was 9 mm; in [6], 0 mm; in test [7] (setting [17]), 13 mm; in test [7] (setting [19]), 12 mm; in test [8], 0 mm. In addition, the zone of inhibition at 20 µg/disc in test [9] is 9 mm; in [10] it was 0 mm; in [11], 0 mm; in test [12], 0 mm; in test [13], 0 mm; in [14] it was 0 mm. Moreover, the zone of inhibition at 20 µg/disc in test [15] was determined as 0 mm. For the same compound, the MIC (commonly the lowest concentration found to suppress growth) in [7] (ATCC9341, 18 h) was 3.94 µM (≈ 2.72 µg/mL). The zone of inhibition at 5 µg/disc in test [7] (setting [18]) was found to be 7 mm. Also, the zone of inhibition at 10 µg/disc in test [7] (setting [18]) stood at 10 mm.

In the case of `CC(=O)OC1=Cc2nc(co2)C(=O)N2CCC=C2C(=O)O[C@H](C(C)C)[C@H](C)/C=C/C(=O)NC/C=C/C(C)=C/[C@@H](OC(C)=O)C1` [Example 1], the pIC50 in [1] was 6.10; in test [2] it was less than 5.52; on CCK-A (rat pancreas) [3] it was less than 5.52; at CCK-A (rat pancreas) [4], less than 5.52. For the same compound, the “A.R. = agonist ratio = IC50([3H]L365,260)/IC50([125I]CCK)” value in test [2] is given as more than 25. Besides, the “percentage in parentheses beside >3.0, [3H]L-365,260 (inhibition at top concentration, not defined)” value in test [2] (beside IC50 >3.0) was determined as 13%. Also, the zone of inhibition at 20 µg/disc came out at 0 mm in the test on Bacillus sp. (Mb 633) (setting [16]); 9 mm in test [5]; 0 mm in test [6]; 17 mm in [7] (setting [17]); 16 mm in test [7] (setting [19]); 0 mm in test [8]. The zone of inhibition at 20 µg/disc came to 14 mm in [9]; 0 mm in test [10]; 0 mm in test [11]; 0 mm in [12]; 0 mm in test [13]; 0 mm in [14]. Also, the zone of inhibition at 20 µg/disc in [15] amounted to 0 mm. In addition, the MIC in test [7] (ATCC9341, 18 h) was 1.92 µM (≈ 1.17 µg/mL). Also, the zone of inhibition at 5 µg/disc in [7] (setting [18]) was determined as 12 mm. In addition, the zone of inhibition at 10 µg/disc in [7] (setting [18]) came to 15 mm.

Regarding `CC1=C\[C@@H](OC(=O)Nc2cccc(C)c2)CC(=O)Cc2nc(co2)C(=O)N2CCC=C2C(=O)O[C@H](C(C)C)[C@H](C)/C=C/C(=O)NC\C=C\1` [Example 12], the negative logarithm of the IC50 (pIC50) is 6.40 in [1], 5.52 in [2], 5.72 at CCK-A (rat pancreas) [3] and 5.10 at CCK-A (rat pancreas) [4]. The “A.R. = agonist ratio = IC50([3H]L365,260)/IC50([125I]CCK)” value in test [2] came out at 7.5. For the same compound, the “A.R. = agonist ratio” value on CCK-A (rat pancreas) [4] ([3H]L-364,718 / [125I]BHCCK) stood at 4.2. Also, the zone of inhibition at 20 µg/disc in the test with Bacillus sp. (Mb 633) (read-out: Inhibition zone diameter, Baci 633, @ 20 g/disc) stood at 0 mm; in test [5] it was 0 mm; in test [6], 0 mm; in test [7] (setting [17]), 9 mm; in test [8], 0 mm; in test [9], 0 mm. Also, the zone of inhibition at 20 µg/disc in [10], in test [11], in test [12], in [13], in [14] and in test [15] was 0 mm in each case. For the same compound, in test [7] (ATCC9341, 18 h), the MIC is more than 243 µM.
